Measured values: US20050107306A1, “Treatment of respiratory disease associated with matrix metalloproteases by inhalation of synthetic matrix metalloprotease inhibitors” (priority 2003, published 2005)

Experiments:
MMP-1 (collagenase-1) = target: T1, MMP-1 (collagenase-1) (Homo sapiens, UniProt P03956); details: read-out: MMP-1 (collagenase-1) Kl; cited from earlier work
T1 sequence (P03956 100-469): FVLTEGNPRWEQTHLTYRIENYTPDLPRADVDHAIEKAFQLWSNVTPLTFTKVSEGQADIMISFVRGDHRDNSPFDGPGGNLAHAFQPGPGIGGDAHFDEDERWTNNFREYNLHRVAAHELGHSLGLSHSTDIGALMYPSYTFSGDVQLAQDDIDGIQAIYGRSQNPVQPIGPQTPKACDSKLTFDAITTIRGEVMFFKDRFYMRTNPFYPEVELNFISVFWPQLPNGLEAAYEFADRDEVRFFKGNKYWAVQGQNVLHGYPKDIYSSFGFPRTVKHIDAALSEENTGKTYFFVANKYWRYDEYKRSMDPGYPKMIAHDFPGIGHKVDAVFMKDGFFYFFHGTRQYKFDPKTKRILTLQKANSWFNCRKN

MMP-3 (stromelysin) = MMP-3 (stromelysin) (Homo sapiens, UniProt P08254); details: read-out: MMP-3 (stromelysin) Kl; cited from earlier work
Sequence of MMP-3 (stromelysin) (P08254 100-477, species assumed): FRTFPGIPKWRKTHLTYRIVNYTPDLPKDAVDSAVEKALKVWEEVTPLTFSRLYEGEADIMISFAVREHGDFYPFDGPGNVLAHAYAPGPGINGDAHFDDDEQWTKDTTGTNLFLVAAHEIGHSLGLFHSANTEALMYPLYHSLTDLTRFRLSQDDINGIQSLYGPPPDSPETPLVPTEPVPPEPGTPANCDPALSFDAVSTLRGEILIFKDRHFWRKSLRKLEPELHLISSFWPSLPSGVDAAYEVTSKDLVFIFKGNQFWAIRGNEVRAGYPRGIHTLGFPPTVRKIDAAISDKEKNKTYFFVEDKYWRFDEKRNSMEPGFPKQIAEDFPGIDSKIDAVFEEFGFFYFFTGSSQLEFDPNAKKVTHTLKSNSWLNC

MMP-7 = target: T2, MMP-7 (Homo sapiens, UniProt P09237); details: read-out: MMP-7 Kl; cited from earlier work
T2 sequence (P09237 95-267): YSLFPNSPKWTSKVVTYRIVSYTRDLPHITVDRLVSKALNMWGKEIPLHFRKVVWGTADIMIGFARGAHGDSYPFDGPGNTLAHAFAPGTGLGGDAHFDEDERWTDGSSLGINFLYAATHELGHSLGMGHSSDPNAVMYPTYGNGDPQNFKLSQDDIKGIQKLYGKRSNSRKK

MMP-2 (gelatinase A) = target: T3, MMP-2 (gelatinase A) (Homo sapiens, UniProt P08253); details: read-out: MMP-2 (gelatinase A) Kl; cited from earlier work
T3 sequence (P08253 110-660): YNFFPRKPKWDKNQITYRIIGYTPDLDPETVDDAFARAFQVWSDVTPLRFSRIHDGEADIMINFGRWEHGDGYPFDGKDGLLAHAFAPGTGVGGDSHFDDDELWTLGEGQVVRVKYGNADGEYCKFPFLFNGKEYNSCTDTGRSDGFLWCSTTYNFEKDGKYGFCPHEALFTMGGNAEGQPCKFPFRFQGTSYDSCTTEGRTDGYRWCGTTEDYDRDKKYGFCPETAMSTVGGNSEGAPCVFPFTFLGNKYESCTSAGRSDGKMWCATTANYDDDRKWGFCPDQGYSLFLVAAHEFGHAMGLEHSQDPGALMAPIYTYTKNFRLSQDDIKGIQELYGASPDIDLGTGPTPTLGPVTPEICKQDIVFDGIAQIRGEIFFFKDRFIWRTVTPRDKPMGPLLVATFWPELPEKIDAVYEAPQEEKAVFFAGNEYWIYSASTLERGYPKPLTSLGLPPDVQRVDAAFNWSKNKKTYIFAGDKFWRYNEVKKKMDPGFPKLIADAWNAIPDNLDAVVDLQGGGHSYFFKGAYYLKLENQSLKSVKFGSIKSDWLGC

MMP-9 (gelatinase B) = MMP-9 (gelatinase B) (Homo sapiens, UniProt P14780); details: read-out: MMP-9 (gelatinase B) Kl; cited from earlier work
Sequence of MMP-9 (gelatinase B) (P14780 94-707, species assumed): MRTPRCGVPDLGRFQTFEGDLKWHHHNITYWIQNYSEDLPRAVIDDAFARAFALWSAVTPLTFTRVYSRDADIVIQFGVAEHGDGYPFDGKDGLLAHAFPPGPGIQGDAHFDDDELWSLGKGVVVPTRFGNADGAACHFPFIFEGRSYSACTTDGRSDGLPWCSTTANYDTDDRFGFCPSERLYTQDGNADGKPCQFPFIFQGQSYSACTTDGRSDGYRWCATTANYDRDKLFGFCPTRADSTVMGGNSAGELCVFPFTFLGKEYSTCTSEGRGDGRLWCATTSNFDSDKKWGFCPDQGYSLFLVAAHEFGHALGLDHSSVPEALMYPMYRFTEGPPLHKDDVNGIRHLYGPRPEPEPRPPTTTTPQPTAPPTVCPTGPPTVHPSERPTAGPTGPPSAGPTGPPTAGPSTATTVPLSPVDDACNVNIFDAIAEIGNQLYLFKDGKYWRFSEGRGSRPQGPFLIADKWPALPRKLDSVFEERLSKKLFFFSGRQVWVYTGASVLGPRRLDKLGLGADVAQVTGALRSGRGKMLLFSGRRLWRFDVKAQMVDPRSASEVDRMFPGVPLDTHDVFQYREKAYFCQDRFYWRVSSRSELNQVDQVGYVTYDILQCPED

[1] = Solubility in liquid formulation; assay type: physicochemical; details: depending on the formulation, read-out: soluble in liquid formulation at levels up to
[2] = test system: murine model of cigarette smoke-related emphysema; test: Murine model of cigarette smoke-related emphysema: lung morphometry, mean linear intercept (Lm); assay type: in vivo; details: smoking mice
Method: Five groups of animals were studied. […] Group 1 animals (32 animals) were control non-smoking animals. Group 2 animals (32 animals) were administered aerosolized PBS (10 ml/5 animals) followed by cigarette smoke. […] All adult mice (12 weeks of age at initiation) were exposed to two cigarettes per day, 6 days/wk for up to 6 months. Within each treatment group there were 3 timepoints for analysis: 1 week, 3 months, and 6 months. […] Delivery proceeded until the nebulizer ran dry (about 30 minutes). […] All were prepared in sterile saline. Vehicle control animals received sterile saline only. In each animal, the right lung was removed and used for fixation/inflation and paraffin embedding to study morphometry, to determine mean linear intercept (Lm), which is the distance between the walls of alveoli, and which increases as proteases (e.g., elastase, metalloproteases) break down pulmonary structure.

[3] = test system: murine model of cigarette smoke-related emphysema; test: Murine model of cigarette smoke-related emphysema: inflammatory cells in bronchoalveolar lavage (BAL); assay type: in vivo; details: smoking mice
Method: Five groups of animals were studied. […] Group 1 animals (32 animals) were control non-smoking animals. Group 2 animals (32 animals) were administered aerosolized PBS (10 ml/5 animals) followed by cigarette smoke. […] All adult mice (12 weeks of age at initiation) were exposed to two cigarettes per day, 6 days/wk for up to 6 months.
Within each treatment group there were 3 timepoints for analysis: 1 week, 3 months, and 6 months. After one week, 3 months, and 6 months on study, 10 animals, 10 animals, and 12 animals respectively, from each group were sacrificed and analytical work on lungs and lung samples was performed (see below).
10 mL of sterile saline or drug was placed in the nebulizer and delivered to each group of five animals. Delivery proceeded until the nebulizer ran dry (about 30 minutes).
All were prepared in sterile saline. Vehicle control animals received sterile saline only.
The left lung was subjected to bronchoalveolar lavage (BAL) to determine levels of the inflammatory cell types macrophages and neutrophils, which were counted by morphology. BAL samples were collected using 0.5 mL rinses of the left lung.

[4] = test system: MMP activity (assay designed primarily to detect MMP-9 activity); test: MMP activity of BAL samples from smoking mice treated with nebulized ilomastat; assay type: in vivo; details: for MMP Activity of BAL sample (mAU/min): drug treated (ilomastat 100 ug/mL nebulized daily), individual mouse samples
Method: The 2-week study was a repeat of the 1-week study but used 10 animals/group.
At the end of each study, BAL samples were obtained from the lungs of each animal using established procedures and each sample was tested for MMP activity using an assay designed primarily to detect MMP-9 activity.
• 1. 150 μL of MMP Reagent Mix was added to each well. The reagent mix consisted of the appropriate dilutions of previously prepared stock solutions in order to yield the following final concentrations in 200 μL final volume/well: • HEPES stock (50 mM final) • CaCl2 stock (10 mM final) • Ellmans Reagent stock (1.25 mM final) • Substrate (Bachem #H7145) stock (475 μM final) • Q.S. with dH2O • 2. Microtiter plate was placed in the 30° C. incubator for 15 min. • 3. 50 μL/well of each BAL sample was added into the appropriate wells • 4. 50 μL/well of vehicle control buffer was added to blank well. • 5. 48 μL/well of vehicle control buffer and 2 μL of MMP-9 (20 ng, CalBiochem #444231) was added to the control well. • 6. Plate was placed in VersaMax Microtiter Plate Reader which was pre-equilibrated to 30° C. • 7. Abs410 was read every 5-6 min for 3 hrs Results and Conclusions: […]

sheep model for asthma = test: Sheep model for asthma: carbachol challenge, DRC/PC 400%; assay type: in vivo; details: 30 μg dose, 24 hours after administration
Method: Phosphate buffered saline (PBS) (control) • 2. […] Results:
DRC/PC %400 refers to the amount of carbochol required to induce a 400% change in airway hyperresponsiveness. The amount required is measured as carbachol breath units (BU); the aerosol concentration of carbachol is fixed and the animal continues to inhale until the appropriate response in obtained. Thus, a higher value indicates a protective effect against an asthmatic reaction.

human MMP-9 = test: MMP-9 fluorescent activity assay in induced sputum samples; assay type: biochemical
Method: Induced sputum (IS) samples were collected from 22 healthy smokers (HS) and 19 patients with clinical evidence of chronic obstructive pulmonary disease (COPD) (Inclusion criteria: FER<0.7 and FEV1 % Predicted 30-80%). The IS was processed using dithiothreitol as previously described by Pavord et al. (1997) Thorax 52, 498-501. 15 randomly selected IS were used for inhibitor studies (COPD n=7; HS n=8).
MMP-9 activity in IS was measured using a commercially available human MMP-9 fluorescent activity assay (Fluorokine® E, R&D Systems, Europe, UK). Following binding of MMP-9 (92, 82, 62 kDa forms) to an immobilized monoclonal antibody, a fluorogenic substrate linked to a quencher molecule was added. Any active MMP-9 cleaved the peptide linkers between the fluorophore and the quencher molecule allowing measurement of the fluorescence using a fluorimeter (Spectrafluor Plus, Tecan, UK). For inhibitor studies, the IS samples were incubated for 30 minutes at room temperature with the inhibitors prior to addition of the synthetic substrate.

[5] = target: MMP-12 (macrophage metalloelastase, ME) (Homo sapiens, UniProt P39900); details: read-out: MMP-12 (macrophage metalloelastase, ME) Kl; cited from earlier work
Sequence of MMP-12 (macrophage metalloelastase, ME) (P39900 106-470, species assumed): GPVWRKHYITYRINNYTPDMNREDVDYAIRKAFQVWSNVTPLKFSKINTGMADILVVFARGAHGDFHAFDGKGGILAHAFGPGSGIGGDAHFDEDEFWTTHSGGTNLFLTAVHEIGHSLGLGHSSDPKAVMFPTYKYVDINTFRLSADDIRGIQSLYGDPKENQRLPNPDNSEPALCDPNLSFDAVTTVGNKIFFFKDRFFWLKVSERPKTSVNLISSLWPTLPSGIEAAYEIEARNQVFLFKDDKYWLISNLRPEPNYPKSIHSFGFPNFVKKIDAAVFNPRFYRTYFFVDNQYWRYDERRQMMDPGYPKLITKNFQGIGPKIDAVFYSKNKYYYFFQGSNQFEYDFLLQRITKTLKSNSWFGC

In the case of `O=C(NO)C1(CS(=O)(=O)c2ccc(Oc3ccc(Cl)cc3)cc2)CCOCC1` [RS-130,830], the Ki (MMP-1 (collagenase-1)) is given as 0.59 µM, the Ki (MMP-3 (stromelysin)) is given as 0.009 µM and the Ki (MMP-7) is given as 1.2 µM.
For `CN1C(=O)N(C[C@@H](C(=O)NO)[C@@H](CC2CCCC2)C(=O)N2CCCCC2)C(=O)C1(C)C` [Ro 32-3555], the Ki (MMP-2 (gelatinase A)) is given as 0.154 µM and the Ki (MMP-9 (gelatinase B)) is given as 0.059 µM.
In the case of `CNC(=O)[C@H](Cc1c[nH]c2ccccc12)NC(=O)[C@@H](CC(=O)NO)CC(C)C` [ilomastat, N-[2(R)-2(hydroxyamidocarbonylmethyl)-4-methylpentanoyl]-L-tryptophan methylamide], the solubility [1] is reported as at most 15 mg/mL, the “% protection (Lm)” value ([2]; ilomastat dose 1 (100 ug/mL)) is reported as 83% and the “Lm vs. non-smokers (%)” value ([2]; ilomastat dose 1 (100 ug/mL)) is reported as 2.6%. For the same compound, the “% protection (Lm)” value ([2]; ilomastat dose 2 (50 ug/ml)) was 96%, the “Lm vs. non-smokers (%)” value ([2]; ilomastat dose 2 (50 ug/ml)) was 0.6% and the “% protection (Lm)” value ([2]; ilomastat dose 3 (10 ug/ml)) was 42%. For the same compound, the “Lm vs. non-smokers (%)” value ([2]; ilomastat dose 3 (10 ug/ml)) was 8.7%, the “Macrophages, cells per ml of BAL fluid” value ([3]; ilomastat dose 1 (100 ug/mL)) was 1000 cells per ml and the “Neutrophils, cells per ml of BAL fluid” value ([3]; ilomastat dose 1 (100 ug/mL)) was 100 cells per ml. For the same compound, the “Macrophages, cells per ml of BAL fluid” value ([3]; ilomastat dose 2 (50 ug/ml)) was 1500 cells per ml, the “Neutrophils, cells per ml of BAL fluid” value ([3]; ilomastat dose 2 (50 ug/ml)) was 220 cells per ml and the “Macrophages, cells per ml of BAL fluid” value ([3]; ilomastat dose 3 (10 ug/ml)) was 2500 cells per ml. The “Neutrophils, cells per ml of BAL fluid” value ([3]; ilomastat dose 3 (10 ug/ml)) was 50 cells per ml, the “MMP activity of BAL samples, in words” value ([4]; 1-week study, all five treated mouse samples) was “no detectable MMP activity” and the “MMP activity of BAL samples, in words” value ([4]; 2-week study, all ten treated mouse samples) was “no detectable MMP activity”. The “MMP Activity of BAL sample (mAU/min)” value ([4]; 2 week study) was 0 mAU/min, the “MMP Activity of BAL sample (mAU/min)” value ([4]; Pilot study (1 week)) was 0 mAU/min and the “effect against asthmatic reaction, in words” value (sheep model for asthma) was “clear protective effect”. For the same compound, the “inhibitory effect on MMP-9 activity in induced sputum” value (“inhibitory effect on MMP-9 activity” for short) (human MMP-9; 30 uM, IS from COPD patients, p=0.249 (ns)) was 9.2+/−7.2%, the “inhibitory effect on MMP-9 activity” value (human MMP-9; 30 uM, IS from healthy smokers (HS), p=0.015) was 22.6+/−6.7% and the “inhibitory effect on MMP-9 activity” value (human MMP-9; 100 uM, IS from COPD patients, p=0.004) was 42.5+/−9.3%. For the same compound, the “inhibitory effect on MMP-9 activity” value (human MMP-9; 100 uM, IS from healthy smokers (HS), p=0.008) was 39.4+/−6.3%, the Ki (MMP-3 (stromelysin)) was 0.026 to 0.027 µM and the Ki [5] was 0.0002 to 0.0004 µM.
